Source: PMC9211397, “High-Throughput Screening Platform To Identify Inhibitors of Protein Synthesis with Potential for the Treatment of Malaria” (Antimicrobial Agents and Chemotherapy, 2022)
Where “and” joins values, the source holds several entries; their conditions need not be identical. Equal entries are not always repeated. Where two headings read alike, the source gives them in different places.

What was measured:
[1] = molecular target: P. falciparum translation (P. falciparum lysate); test: P. falciparum in vitro translation (PfIVT) assay, lysate-based, luciferase reporter; format: biochemical, Plasmodium falciparum; details: for PfIVT inhibition at 30 μM (%): single-point screen; for selectivity index/window, PfIVT compared to HsIVT: HsIVT IC50 over PfIVT IC50
Excerpt: (§1) Our P. falciparum in vitro translation (PfIVT) assay is built upon previously established assays ([14], [17]) and is summarized in Fig. 1A. In this assay, successful reconstitution of Plasmodium protein translation is reported via synthesis of a luciferase reporter. For PfIVT, two independent untranslated regions (UTRs), previously shown to promote strong levels of translation ([17]), were introduced upstream and downstream of the luciferase. The 5′ UTR from P. falciparum histidine-rich protein 3 (PfHrp3) ([18]) was introduced upstream of the reporter gene, and the 3′ UTR from P. falciparum histidine-rich protein 2 (PfHrp2) gene ([19]) was introduced downstream. For the reporter construct to support our complementary human IVT assay (HsIVT), the 5′ UTR was replaced with an internal ribosome entry site (IRES) from encephalomyocarditis virus (EMCV) ([20]) and the 3′ UTR was replaced with a poly(A) tail ([21]). […] Finally, a 30-bp poly(A) tail, present within the vector and downstream of the luciferase gene, was inserted to enhance mRNA stability ([21]).
(§2) Translationally active P. falciparum or human embryonic kidney (HEK) 293F lysates were supplemented with accessory, helper, amino acid, and energy regeneration solutions (see Materials and Methods for details). In vitro translation reactions were initiated by the addition of purified mRNA to each reaction well. Using this basic assay format, a number of parameters were assessed and optimized, namely, assay temperature, time, mRNA concentration, and reaction volume (summarized in Fig. S2 in the supplemental material). In addition, we compared the luminescence signal of the CBG firefly luciferase with CBG99, derived from the click beetle […] ([18]).
3D7 parasites were synchronized following two rounds of treatment with D-sorbitol (5%), as previously described ([40]). The hematocrit was reduced from 5% (for standard culture) to 1.5 to 2% and cultures were transferred into HYPERflasks (Corning). Fresh medium was added once or twice daily. […] Harvested red blood cells (infected) were lysed by incubation in 0.1% (wt/vol) saponin on ice for 10 min with gentle agitation. Free parasites were harvested by centrifugation (2,800 × g, 10 min, 4°C) and washed 3 times in wash buffer (WB; 100 mM potassium acetate, 2.5 mM magnesium acetate, 45 mM HEPES [pH 7.4], 250 mM sucrose, 2 mM dithiothreitol, and 15 μM leupeptin) to remove lysed red blood cell debris. The resulting pellet was resuspended in 1 volume of WB supplemented with cOmplete EDTA-free protease inhibitor cocktail (Roche; 1 tablet/20 mL) and human RNase A inhibitor (Sigma; 5 U/mL). Parasite lysis was achieved by nitrogen cavitation using a prechilled 45-mL Parr cell disruption vessel (1,500 lb/in^2, 60 min, 4°C). To clarify the lysate, it was centrifuged (10,000 × g, 15 min, 4°C), and the supernatant was collected, transferred into fresh tubes, and centrifuged (30,000 × g, 15 min, 4°C). As a quality assurance step for each lysate, the RNA content of the resulting supernatant was determined using a NanoDrop spectrophotometer (Shimadzu). Supernatants with RNA levels of >250 ng/μL were aliquoted (100 μL), flash frozen in liquid nitrogen, and stored at −80°C.

[2] = molecular target: human translation (HEK 293F lysate); test: Human in vitro translation (HsIVT) assay, HEK 293F lysate, luciferase reporter; format: biochemical; details: for effect on translation in the HsIVT assay (Fig. S3A): 10 µM, three technical replicates
Excerpt: as §1, §2
FreeStyle human embryonic kidney (HEK) 293F cells (Thermo Fisher Scientific) were grown in 500-mL polycarbonate Erlenmeyer vented flasks (Corning) containing FreeStyle 293 expression medium (Life Technologies) upon reaching a density of approximately 2 × 10^6. Cells were then centrifuged at 1,000 × g for 10 min at 4°C, the medium was discarded, and the resulting pellet was washed once in buffer II containing 20 U of human placental RNase inhibitor (Sigma-Aldrich) and cOmplete EDTA-free inhibitor cocktail (Roche) before being centrifuged at 2,800 × g for 10 min. Clarified HEK cell lysate was obtained in the same way as described for P. falciparum lysate.
PfIVT and HsIVT reactions (5 μL final volume) were performed in 384-well plates (Corning) containing 50% lysate from cells (either P. falciparum or HEK 293F), 10% amino acid solution (final concentration of 400 μM for each amino acid in 60 mM KOH; biotechrabbit), 10% energy recovery solution (final assay concentrations of 40 mM HEPES [pH 7.4], 1.5 mM ATP, 0.15 mM GTP, […] creatine phosphate, and 40 U/mL creatine phosphokinase), 10% helper solution (final assay concentrations of 200 μM cystine, 2% polyethylene glycol 3000 [PEG 3000], 1 mM spermidine, 0.5 mM folinic acid, and 15 μM leupeptin), 10% supplemental salt solution (22.5 mM HEPES [pH 7.4], 50 mM potassium acetate, 1 mM magnesium acetate, 1 mM DTT, 1 U/mL human placental RNase inhibitor, 0.1 mM leupeptin), and 10% cbg99 luciferase mRNA (3,000 ng/mL). A master mix solution containing all components was prepared on ice prior to assays, and 5 μL was dispensed into wells using an automated Integra VIAFLO 16-channel 12.5-μL pipette.

CBG99 luciferase = CBG99 luciferase (Pyrophorus plagiophthalamus, UniProt Q7M4K1); test: Luciferase counterscreen (false-positive counterscreen); format: biochemical, click beetle; details: read-out: IC50 value (μM) Counterscreen, weighted mean ± SD of two technical replicates
Method: Hits identified in our primary assay screen were assessed for their potential to interfere with the cbg99 luciferase reporter. For this counterscreen, the master mix containing all the components required for translation (as described above) was incubated for 210 min at 32°C, resulting in the in vitro translation of cbg99 luciferase. The produced luciferase was then incubated with test compounds for 5 min prior to the addition of luciferase reaction buffer. […] Hits from the primary screen were assessed as luciferase inhibitors in 8-point dose-dependent assays ranging from 30 μM to 13.7 nM (1:3 dilutions). Levels of luciferase inhibition were determined relative to the positive control.

[3] = system: asexual-blood-stage P. falciparum; details: cited from earlier work
[4] = system: asexual-blood-stage (ABS) P. falciparum; test: SYBR green-based P. falciparum asexual growth inhibition assay; format: cell-based; details: Plasmodium falciparum
Method: The Plasmodium falciparum reference strain 3D7 used throughout this study was cultured as previously described ([39]). Briefly, cultures incubated at 37°C in a humidified atmosphere of 1% O2 and 3% CO2 in balance with N2 were maintained in RPMI 1640 media supplemented with 5% A^+ human red blood cells (provided by the Scottish National Blood Transfusion Service), 25 mM HEPES, 2 mM L-glutamine, 0.5% AlbuMAX II (Gibco), 12 mM sodium bicarbonate, 0.2 mM hypoxanthine, and 20 mg/L gentamicin (pH 7.3).
Our SYBR green asexual-growth assay was based on a previous report ([45]). In brief, 96-well black clear-bottom plates (Corning) were preprinted with a compound and normalized with DMSO to 0.5% of a total assay volume of 100 μL. Highly synchronized ring-stage parasites and blood were added to a 2% final parasitemia and 1% hematocrit. The compounds were incubated with parasites for 72 h prior to freezing at −20°C (to aid cell lysis). The plate was thawed on ice and lysis buffer (20 mM Tris pH 7.5, 5 mM EDTA, 0.008% [w/v] saponin, […]) containing SYBR green I (Thermo Fisher Scientific) at a final concentration of 0.02% (v/v) was added. The 96-well plate was equilibrated to room temperature for 1 h before fluorescence was determined on a TECAN Infinite Pro 200 microplate reader using green fluorescent protein (GFP) filters (excitation, 485 nm; emission, 535 nm). Data were fitted to a two-parameter equation using GraFit version 7.0 (Erithacus Software), and EC50 values were calculated. An excess of the standard inhibitor mefloquine (10 μM) was used to define 0% parasite growth.

[5] = Pathogen Box hits, 8-point, weighted mean ± SD of two technical replicates, read-out: IC50 value (μM) PfIVT
[6] = Pathogen Box hits, weighted mean ± SD of two technical replicates, read-out: IC50 value (μM) HsIVT
[7] = P. falciparum 3D7 cell line, read-out: P. falciparum asexual-blood-stage EC50
[8] = established inhibitors of protein translation, read-out: IC50 values, µM PfIVT (Table S1)
[9] = weighted mean ± SD from at least two biological replicates, read-out: IC50 in the HsIVT assay (Fig. S3B)
[10] = established inhibitors of protein translation, read-out: EC50 values, µM PfABS (Table S1)
[11] = P. falciparum Dd2 cell line, read-out: P. falciparum asexual-blood-stage EC50

Chain of CBG99 luciferase (Q7M4K1 entry or part of it): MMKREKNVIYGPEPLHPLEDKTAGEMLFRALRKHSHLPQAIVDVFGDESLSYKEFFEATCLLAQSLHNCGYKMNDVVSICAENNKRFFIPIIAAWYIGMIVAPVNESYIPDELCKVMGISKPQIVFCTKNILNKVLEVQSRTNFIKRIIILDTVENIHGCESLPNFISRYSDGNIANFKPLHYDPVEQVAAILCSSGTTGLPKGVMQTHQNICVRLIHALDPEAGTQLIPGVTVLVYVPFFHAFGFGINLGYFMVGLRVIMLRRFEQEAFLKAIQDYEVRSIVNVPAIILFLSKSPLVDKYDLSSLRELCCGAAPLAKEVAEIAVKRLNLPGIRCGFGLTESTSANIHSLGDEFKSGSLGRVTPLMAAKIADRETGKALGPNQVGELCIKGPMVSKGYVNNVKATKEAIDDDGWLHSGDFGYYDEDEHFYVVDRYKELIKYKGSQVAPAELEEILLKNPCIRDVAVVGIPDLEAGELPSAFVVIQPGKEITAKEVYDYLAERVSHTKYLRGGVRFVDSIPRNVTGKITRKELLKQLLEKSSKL

| SMILES | IC50 [1, 5] [µM] | IC50 ([1]; Table 3, read-out: PfIVT IC50) [µM] | PfIVT inhibition at 30 μM (%) ([1]; Pathogen Box) | IC50 [2, 6] [µM] | IC50 (CBG99 luciferase; Pathogen Box hits) | EC50 [3, 7] [µM] | selectivity index/window, PfIVT compared to HsIVT [1] [fold] | IC50 [1, 8] [µM] | other results |
| --- | --- | --- | --- | --- | --- | --- | --- | --- | --- |
| O=C(NCCN1CCCC1)c1cc(NCCN2CCOCC2)nc2ccc(Cl)cc12 [MMV634140] | 2.9 ± 0.09 | 3 ± 0.09 | 88.4 | > 30 | > 30 µM | 0.09 |  |  | EC50 ([3]; asexual-blood-stage P. falciparum, Table 3 footnote: 3D7, read-out: ABS EC50 (text)): 0.041 µM |
| O=C(Nc1ccc(C(F)(F)F)c(C(F)(F)F)c1)c1cc(Cl)ccc1O [MMV687807] | 0.09 ± 0.007 | 0.09 ± 0.007 | 95.1 | 0.5 ± 0.006 | 25 ± 0.8 µM | 1.8 | ≤ 5 |  |  |
| Cc1ccc2c(c1C)NC(=O)C21NN=C(c2ccccc2)S1 (stereo not shown) [MMV019189] | 0.03 ± 0.009 | 0.03 ± 0.009 | 84.4 | 7.7 ± 0.3 | 7 µM and > 30 µM | 0.75 | ≥ 30 |  |  |
| C[C@@H]1C[C@H](C)C[C@H](C)[C@@H](O)CC(=O)O[C@H]([C@@H]2CCC[C@H]2C(=O)O)C/C=C/C=C(/C#N)[C@H](O)[C@@H](C)C1 [Borrelidin, borrelidin, reference compound] |  |  |  |  |  |  |  | 1.2 | EC50 ([3]; ref 50 (supplement numbering), read-out: EC50 values, µM PfABS (Table S1)): 0.002 µM |
| O=C(CC1NCCCC1O)Cn1cnc2cc(Br)c(Cl)cc2c1=O (stereo not shown) [Halofuginone, halofuginone, reference compound] |  |  |  |  |  |  |  | 0.3 | inhibition of translation in HsIVT assay (validation) [2]: successfully inhibit translation; effect on translation in the HsIVT assay (Fig. S3A) [2]: ablated activity; IC50 [2, 9]: 1.7 ± 0.04 µM; EC50 [4, 10]: 0.0004 µM |
| Nc1nc(NC2Cc3ccc(F)cc3C2)nc(N2CCCCC2)n1 (stereo not shown) [MMV1580839] |  | 0.8 ± 0.08 |  |  |  |  |  |  | PfIVT IC50 (μM) [1]: submicromolar potency; IC50 ([1]; Pandemic Box hits, 8-point, weighted mean ± SD of two technical replicates, read-out: IC50 value (μM) PfIVT): 0.8 ± 0.08 µM; PfIVT inhibition at 30 μM (%) ([1]; Pandemic Box): 73.3%; IC50 ([2]; Pandemic Box hits, weighted mean ± SD of two technical replicates, read-out: IC50 value (μM) HsIVT): 7.6 ± 0.12 µM; IC50 ([2]; read-out: HsIVT IC50 (text)): 8 µM; IC50 (CBG99 luciferase; Pandemic Box hits): 8.3 ± 0.08 µM; EC50 [3, 11]: 5 µM |
| Cc1ccc(NC(=O)c2cc(Cl)ccc2O)cc1 [MMV1578897] |  |  |  |  |  |  |  |  | PfIVT inhibition at 30 μM (%) ([1]; Pandemic Box): 93.4%; EC50 [3, 11]: 5 µM |
| C[C@@H]1C[C@@H]([C@H](O)CC2CC(=O)NC(=O)C2)C(=O)[C@@H](C)C1 [Cycloheximide, cycloheximide, reference compound] |  |  |  |  |  |  |  | 0.5 | inhibition of translation in HsIVT assay (validation) [2]: successfully inhibit translation; effect on translation in the HsIVT assay (Fig. S3A) [2]: ablated activity; IC50 [2, 9]: 1.2 ± 0.04 µM; EC50 ([4]; read-out: EC50 values, µM PfABS (Table S1)): 0.1 µM |
| O=C(Nc1ccc(F)c(-c2nc3cc(-c4ccccc4)cnc3[nH]2)c1)N1CCCC1 [MMV688372] |  |  | 62.9 |  |  |  |  |  | EC50 ([4]; 3D7, 72 h, read-out: P. falciparum asexual-blood-stage EC50): 13.6 µM; EC50 ([4]; read-out: EC50 against P. falciparum (text)): 14 µM |
| O=C(NCCN1CCCC1)c1cc(NCCCCN2CCC(F)(F)CC2)nc2ccc(Cl)cc12 [MMV667494] | 0.3 ± 0.09 | 0.3 ± 0.09 | 97.7 | > 30 | > 30 µM | 0.01 | ≥ 30 |  |  |
| O=C(Nc1c(O)cccc1-c1nc2c(C(=O)O)cccc2o1)c1cc(-c2ccccc2)on1 [MMV676008] | 0.4 ± 0.08 | 0.4 ± 0.08 | 74.9 | 12 ± 0.4 | 21 ± 0.6 µM | > 20 | ≥ 30 |  | IC50 ([1]; read-out: PfIVT IC50 (text)): 0.04 µM; EC50 ([3]; Table 3 footnote: 3D7, read-out: EC50 against P. falciparum (text)): > 25 µM |
| O=C(NCCN1CCCC1)c1cc(-c2ccc(CN3CCOCC3)cc2Cl)nc2ccc(F)cc12 [DDD00197451, reference compound] |  |  |  |  |  |  |  | 0.5 | inhibition of translation (PfIVT), internal control ([1]; internal control in all plates of the single-point screens): > 97%; EC50 [4, 10]: 0.003 µM |
| NCCCC[C@H](N)C(=O)NS(=O)(=O)OC[C@H]1O[C@@H](n2cnc3c(N)ncnc32)[C@H](O)[C@@H]1O [DDD01712277, reference compound] |  |  |  |  |  |  |  | 0.2 | EC50 [4, 10]: 0.1 µM |
